Reference: article PMC7143578, “Terpenoids from the Deep-Sea-Derived Fungus Penicillium thomii YPGA3 and Their Bioactivities” (Marine Drugs, 2020)

Tests used:
[1] = Cytotoxicity toward MCF-7 breast carcinoma cells; format: cell-based; set-up: concentration or dose not given beside the values; details: human, read-out: cytotoxicity (%) toward MCF-7 (cell viability)
[2] = Cytotoxicity toward MDA-MB-468 breast carcinoma cells; format: cell-based, human; set-up: viability: concentration or dose not given beside the values; details: human, MDA-MB-468 breast carcinoma cells; read-out: cytotoxicity (%) toward MDA-MB-468 (cell viability)
MDA-MB-468 cells = experiment: as above; format: cell-based, human; set-up: viability: concentration or dose not given beside the values; details: Homo sapiens, MDA-MB-468
[3] = MTT cell viability of RAW 264.7 macrophages; format: cell-based; details: mouse, LPS-activated RAW 264.7 macrophages, MTT assay, read-out: cytotoxicity (%) toward RAW 264.7 (cell viability)
Procedure: (§1) The isolated compounds were also evaluated for their inhibitory effects against NO production in LPS-activated RAW 264.7 macrophages at the concentration of 50 μM following the same procedures in our previous study. The cell viability was further determined by the MTT assay to evaluate whether the inhibition on NO production was owing to the cytotoxicity.

RAW 264.7 cells = experiment: MTT cell viability of RAW 264.7 macrophages; format: cell-based; details: MTT assay, 50 μM
Procedure: as §1

[4] = tested on: NO production in LPS-activated RAW 264.7 macrophages; experiment: Inhibition of NO production in LPS-activated RAW 264.7 macrophages; format: cell-based; details: Mus musculus, RAW264.7, 50 μM, read-out: Inhibitions (%) on NO production
Procedure: as §1

[5] = tested on: α-glucosidase from Saccharomyces cerevisiae; experiment: α-glucosidase inhibition assay (PNPG substrate); format: biochemical; details: for inhibition of α-glucosidase: initial concentration of 1 mM; for IC50: three replicates, read-out: IC50 against α-glucosidase
Procedure: The α-glucosidase inhibitory effect was assessed as follows. First, 0.2 U of α-glucosidase from Saccharomyces cerevisiae was purchased from Sigma-Aldrich (St. Louis, MO, USA), and was diluted in a 0.067 M phosphate buffer consisting of Na2HPO4·12H2O and KH2PO4 (pH 6.8). The assay was conducted in a 60 μL reaction system containing 20 μL of diluted enzyme solution, and 20μL of dimethyl sulfoxide (DMSO) or sample (dissolved in DMSO). […] The plate was incubated for an additional 20 min at 37 °C, and the reaction was quenched by adding 60 μL of 0.2 M Na2CO3. The final concentrations of tested compounds were between 0.2 and 2 mM. The optical density (OD) was measured at an absorbance wavelength of 405 nm using a Microplate Reader (Tecan, Mannedorf, Switzerland).

SMILES	viability [1]	viability [2]	IC50 (MDA-MB-468 cells)	viability at 50 µM [3]	cytotoxicity (%) toward RAW 264.7 (cell viability) (RAW 264.7 cells)	inhibition at 50 µM [4]	inhibition of α-glucosidase [5]	IC50 [5]
COC(=O)CCC1(C)C(C(C)(C)O)CCC2(C)Oc3c(C)c4c(c(O)c3CC21)C(=O)OC4 (stereo not shown) [Compound 1, austalide Y]	104%	31.6%	38.9 ± 1.83 µM	33.1%	obvious cytotoxic effects			
COC(=O)CC[C@]1(C)[C@H]2Cc3c(c(C)c4c(c3OC)C(=O)OC4)O[C@@]2(C)CC[C@H]1C(C)(C)O [Compound 2, austalide P]	117%	78.2%		46.2%	obvious cytotoxic effects	> 50%	more than 50%	910 ± 4 µM
COC(=O)CC[C@]1(C)[C@H]2Cc3c(c(C)c4c(c3OC)C(=O)OC4)O[C@@]2(C)C[C@@H](O)[C@H]1C(C)(C)O [Compound 3, austalide H]	84.7%	87.2%		60.9%		-9.91%		
COc1c2c(c(C)c3c1C(=O)OC3)O[C@@]1(C)CC[C@@H](C(C)(C)O)[C@](C)(CCC(=O)O)[C@H]1C2 [Compound 4, austalide P acid]	82.4%	92.6%		97.4%		5.29%		
COc1c2c(c(C)c3c1C(=O)OC3)O[C@@]1(C)C[C@@H](O)[C@@H](C(C)(C)O)[C@](C)(CCC(=O)O)[C@H]1C2 [Compound 5, austalide H acid]	69.1%	87.3%		104%		12.1%		
COc1c2c(c(C)c3c1C(=O)OC3)OC1(C)CC(O)C34OC(O)(CCC3(C)C1C2)OC4(C)C (stereo not shown) [Compound 6, 17-O-demethylaustalide B]	73.8%	92.3%		74.6%		-3.74%		
C=C(C)[C@@H]1[C@H](O)C[C@]2(C)Oc3c(C)c4c(c(OC)c3C[C@@H]2[C@@]1(C)CCC(=O)O)C(=O)OC4 [Compound 7, austalide Q acid]	74.8%	91.1%		80.8%		-3.08%		
C=C(C)[C@@H]1CC[C@]2(C)Oc3c(C)c4c(c(OC)c3C[C@@H]2[C@@]1(C)CCC(=O)O)C(=O)OC4 [Compound 8, 13-deoxyaustalide Q acid]	76.3%	79.3%		53.5%		24%		
C=C1CCC2C(C)(CCC(O)C2(C)C(=O)O)C1CCC(C)=CC(=O)O (stereo not drawn) [Compound 9, 3β-hydroxy-agathic acid]	88.8%	92.1%		83.3%		7.81%	low inhibition	
C=C1CCC2C(C)(CCC(OC(C)=O)C2(C)C(=O)O)C1CCC(C)=CC(=O)O (stereo not drawn) [Compound 10, 3β-acetoxy-agathic acid]	90%	94.5%		58.4%	obvious cytotoxic effects		low inhibition	
C=C1CC[C@@H]2[C@](C)(CCC[C@]2(C)C(=O)O)[C@H]1CC/C(C)=C/C(=O)O [Compound 11, agathic acid]	83.5%	89.3%		89.9%		4.85%	more than 50%	525 ± 2 µM
